Values quoted from earlier work, collected in patent US11512068B2, “Process for the preparation of crystalline ridinilazole using acid addition salts” (Sandoz AG, priority 2017, dated 2022).

Columns and labels:
Clostridium difficile [1] = details: treatment with ridinilazole
[2] = phase 1 trial, oral
Clostridium difficile [3] = tested on: Clostridium difficile
clostridia = details: phase 1 trial, oral

Question: What does the source list for c1cc(-c2nc3ccc(-c4ccc5nc(-c6ccncc6)[nH]c5c4)cc3[nH]2)ccn1 [Ridinilazole, 5,5′bis[2-(4-pyridinyl)-1H-benzimidazole]]?
Answer: toxin production (Clostridium difficile [1]): decreased toxin production; tolerability [2]: well tolerated; post-antibiotic effect (Clostridium difficile [3]): prolonged post-antibiotic effect; selectivity for clostridia over other faecal bacteria (clostridia): specifically targets clostridia whilst sparing other faecal bacteria
